# Data taken from article PMC12102759 (Protein Science : A Publication of the Protein Society, 2025).
# System: PABPC1 PABC
# Assay type: binding, human
# Conditions: DMS-BM library, bait PABPC1 PABC, prey ATXN2, peptide KSTLNPNAKEFNPRSF; N = wild type, row aa = residue at this position
row,Sequence,"DMS-derived PSSM value, position N12"
1,KSTLNPNAKEFNPRSF N12V (KSTLNPNAKEFVPRSF),0.2093
2,KSTLNPNAKEFNPRSF N12W (KSTLNPNAKEFWPRSF),0.1585
3,KSTLNPNAKEFNPRSF N12Y (KSTLNPNAKEFYPRSF),0.1026

# Same assay, conditions: DMS-BM library, bait PABPC1 PABC, prey ATXN2, peptide KSTLNPNAKEFNPRSF; P = wild type, row aa = residue at this position
Sequence,"DMS-derived PSSM value, position P6","DMS-derived PSSM value, position P13"
KSTLNPNAKEFNPRSF P6A (KSTLNANAKEFNPRSF),0,
KSTLNPNAKEFNPRSF P6D (KSTLNDNAKEFNPRSF),0,
KSTLNPNAKEFNPRSF P6E (KSTLNENAKEFNPRSF),0,
KSTLNPNAKEFNPRSF P6F (KSTLNFNAKEFNPRSF),0,
KSTLNPNAKEFNPRSF P6G (KSTLNGNAKEFNPRSF),0.01358,
KSTLNPNAKEFNPRSF P6H (KSTLNHNAKEFNPRSF),0.01713,
KSTLNPNAKEFNPRSF P6I (KSTLNINAKEFNPRSF),0.3229,
KSTLNPNAKEFNPRSF P6K (KSTLNKNAKEFNPRSF),0,
KSTLNPNAKEFNPRSF P6L (KSTLNLNAKEFNPRSF),0.1435,
KSTLNPNAKEFNPRSF P6M (KSTLNMNAKEFNPRSF),0,
KSTLNPNAKEFNPRSF P6N (KSTLNNNAKEFNPRSF),0,
KSTLNPNAKEFNPRSF P6Q (KSTLNQNAKEFNPRSF),0,
KSTLNPNAKEFNPRSF P6R (KSTLNRNAKEFNPRSF),0,
KSTLNPNAKEFNPRSF P6S (KSTLNSNAKEFNPRSF),0.01358,
KSTLNPNAKEFNPRSF P6T (KSTLNTNAKEFNPRSF),0.001755,
KSTLNPNAKEFNPRSF P6V (KSTLNVNAKEFNPRSF),0.3743,
KSTLNPNAKEFNPRSF P6W (KSTLNWNAKEFNPRSF),0,
KSTLNPNAKEFNPRSF P6Y (KSTLNYNAKEFNPRSF),0,

Sequence,"DMS-derived PSSM value, position P6","DMS-derived PSSM value, position P13"
KSTLNPNAKEFNPRSF P13A (KSTLNPNAKEFNARSF),,0.005231
KSTLNPNAKEFNPRSF P13D (KSTLNPNAKEFNDRSF),,0.0004732
KSTLNPNAKEFNPRSF P13E (KSTLNPNAKEFNERSF),,0.006076
KSTLNPNAKEFNPRSF P13F (KSTLNPNAKEFNFRSF),,0.002959
KSTLNPNAKEFNPRSF P13G (KSTLNPNAKEFNGRSF),,0.05991
KSTLNPNAKEFNPRSF P13H (KSTLNPNAKEFNHRSF),,0
KSTLNPNAKEFNPRSF P13I (KSTLNPNAKEFNIRSF),,0.01276
KSTLNPNAKEFNPRSF P13K (KSTLNPNAKEFNKRSF),,0
KSTLNPNAKEFNPRSF P13L (KSTLNPNAKEFNLRSF),,0.006424
KSTLNPNAKEFNPRSF P13M (KSTLNPNAKEFNMRSF),,0
KSTLNPNAKEFNPRSF P13N (KSTLNPNAKEFNNRSF),,0.004405
KSTLNPNAKEFNPRSF P13Q (KSTLNPNAKEFNQRSF),,0.08339
KSTLNPNAKEFNPRSF P13R (KSTLNPNAKEFNRRSF),,0
KSTLNPNAKEFNPRSF P13S (KSTLNPNAKEFNSRSF),,0.02375
KSTLNPNAKEFNPRSF P13T (KSTLNPNAKEFNTRSF),,0.0002514
KSTLNPNAKEFNPRSF P13V (KSTLNPNAKEFNVRSF),,0.767
KSTLNPNAKEFNPRSF P13W (KSTLNPNAKEFNWRSF),,0.01574
KSTLNPNAKEFNPRSF P13Y (KSTLNPNAKEFNYRSF),,0.004042

# Same assay, conditions: DMS-BM library, bait PABPC1 PABC, prey ATXN2, peptide KSTLNPNAKEFNPRSF; R = wild type, row aa = residue at this position
row,Sequence,"DMS-derived PSSM value, position R14"
1,KSTLNPNAKEFNPRSF R14A (KSTLNPNAKEFNPASF),0.09772
2,KSTLNPNAKEFNPRSF R14D (KSTLNPNAKEFNPDSF),0
3,KSTLNPNAKEFNPRSF R14E (KSTLNPNAKEFNPESF),0.01157
4,KSTLNPNAKEFNPRSF R14F (KSTLNPNAKEFNPFSF),0.03238
5,KSTLNPNAKEFNPRSF R14G (KSTLNPNAKEFNPGSF),0.105
6,KSTLNPNAKEFNPRSF R14H (KSTLNPNAKEFNPHSF),0.02913
7,KSTLNPNAKEFNPRSF R14I (KSTLNPNAKEFNPISF),0.04837
8,KSTLNPNAKEFNPRSF R14K (KSTLNPNAKEFNPKSF),0.002275
9,KSTLNPNAKEFNPRSF R14L (KSTLNPNAKEFNPLSF),0.02501
10,KSTLNPNAKEFNPRSF R14M (KSTLNPNAKEFNPMSF),0.00585
11,KSTLNPNAKEFNPRSF R14N (KSTLNPNAKEFNPNSF),0.007229
12,KSTLNPNAKEFNPRSF R14P (KSTLNPNAKEFNPPSF),0.00803
13,KSTLNPNAKEFNPRSF R14Q (KSTLNPNAKEFNPQSF),0.09624
14,KSTLNPNAKEFNPRSF R14S (KSTLNPNAKEFNPSSF),0.06387
15,KSTLNPNAKEFNPRSF R14T (KSTLNPNAKEFNPTSF),0.1913
16,KSTLNPNAKEFNPRSF R14V (KSTLNPNAKEFNPVSF),0.03521
17,KSTLNPNAKEFNPRSF R14W (KSTLNPNAKEFNPWSF),0.1772
18,KSTLNPNAKEFNPRSF R14Y (KSTLNPNAKEFNPYSF),0.04467

# Same assay, conditions: DMS-BM library, bait PABPC1 PABC, prey ATXN2, peptide KSTLNPNAKEFNPRSF; S = wild type, row aa = residue at this position
Sequence,"DMS-derived PSSM value, position S2","DMS-derived PSSM value, position S15"
KSTLNPNAKEFNPRSF S2A (KATLNPNAKEFNPRSF),0.03999,
KSTLNPNAKEFNPRSF S2D (KDTLNPNAKEFNPRSF),0.01347,
KSTLNPNAKEFNPRSF S2E (KETLNPNAKEFNPRSF),0.01242,
KSTLNPNAKEFNPRSF S2F (KFTLNPNAKEFNPRSF),0.06555,
KSTLNPNAKEFNPRSF S2G (KGTLNPNAKEFNPRSF),0.02803,
KSTLNPNAKEFNPRSF S2H (KHTLNPNAKEFNPRSF),0.0308,
KSTLNPNAKEFNPRSF S2I (KITLNPNAKEFNPRSF),0.01393,
KSTLNPNAKEFNPRSF S2K (KKTLNPNAKEFNPRSF),0,
KSTLNPNAKEFNPRSF S2L (KLTLNPNAKEFNPRSF),0.006151,
KSTLNPNAKEFNPRSF S2M (KMTLNPNAKEFNPRSF),0.2211,
KSTLNPNAKEFNPRSF S2N (KNTLNPNAKEFNPRSF),0,
KSTLNPNAKEFNPRSF S2P (KPTLNPNAKEFNPRSF),0.1938,
KSTLNPNAKEFNPRSF S2Q (KQTLNPNAKEFNPRSF),0.001157,
KSTLNPNAKEFNPRSF S2R (KRTLNPNAKEFNPRSF),0.0005784,
KSTLNPNAKEFNPRSF S2T (KTTLNPNAKEFNPRSF),0.02133,
KSTLNPNAKEFNPRSF S2V (KVTLNPNAKEFNPRSF),0.1043,
KSTLNPNAKEFNPRSF S2W (KWTLNPNAKEFNPRSF),0.0005784,
KSTLNPNAKEFNPRSF S2Y (KYTLNPNAKEFNPRSF),0.2105,

Sequence,"DMS-derived PSSM value, position S2","DMS-derived PSSM value, position S15"
KSTLNPNAKEFNPRSF S15A (KSTLNPNAKEFNPRAF),,0.02636
KSTLNPNAKEFNPRSF S15D (KSTLNPNAKEFNPRDF),,0
KSTLNPNAKEFNPRSF S15E (KSTLNPNAKEFNPREF),,0.02092
KSTLNPNAKEFNPRSF S15F (KSTLNPNAKEFNPRFF),,0.0234
KSTLNPNAKEFNPRSF S15G (KSTLNPNAKEFNPRGF),,0
KSTLNPNAKEFNPRSF S15H (KSTLNPNAKEFNPRHF),,0.1165
KSTLNPNAKEFNPRSF S15I (KSTLNPNAKEFNPRIF),,0.03802
KSTLNPNAKEFNPRSF S15K (KSTLNPNAKEFNPRKF),,0
KSTLNPNAKEFNPRSF S15L (KSTLNPNAKEFNPRLF),,0.4164
KSTLNPNAKEFNPRSF S15M (KSTLNPNAKEFNPRMF),,0.01897
KSTLNPNAKEFNPRSF S15N (KSTLNPNAKEFNPRNF),,0.1002
KSTLNPNAKEFNPRSF S15P (KSTLNPNAKEFNPRPF),,0.04178
KSTLNPNAKEFNPRSF S15Q (KSTLNPNAKEFNPRQF),,0
KSTLNPNAKEFNPRSF S15R (KSTLNPNAKEFNPRRF),,0.007958
KSTLNPNAKEFNPRSF S15T (KSTLNPNAKEFNPRTF),,0.007163
KSTLNPNAKEFNPRSF S15V (KSTLNPNAKEFNPRVF),,0.09383
KSTLNPNAKEFNPRSF S15W (KSTLNPNAKEFNPRWF),,0.009844
KSTLNPNAKEFNPRSF S15Y (KSTLNPNAKEFNPRYF),,0.02596

# Same assay, conditions: DMS-BM library, bait PABPC1 PABC, prey ATXN2, peptide KSTLNPNAKEFNPRSF; T = wild type, row aa = residue at this position
row,Sequence,"DMS-derived PSSM value, position T3"
1,KSTLNPNAKEFNPRSF T3A (KSALNPNAKEFNPRSF),0.04081
2,KSTLNPNAKEFNPRSF T3D (KSDLNPNAKEFNPRSF),0.0007076
